According to paper PMC3517777, “Phase I study of TP300 in patients with advanced solid tumors with pharmacokinetic, pharmacogenetic and pharmacodynamic analyses” (BMC Cancer, 2012):
Like-named read-outs stand apart in the source and are kept apart here.

Tests used:
[1] = Plasma and urine pharmacokinetics after TP300 infusion (LC-MS/MS, non-compartmental); type: in vivo, human; conditions: for concentration at 1 h: human, in vivo, read-out: Plasma TP300 concentration 1 h after administration, mean
Experimental: Venous blood (3 mL) was taken into sodium heparin tubes containing 30 μL of 46% citric acid, centrifuged 1500g at 4°C for 10 min and 1 mol/L hydrochloric acid was added (1:10) to plasma from each subject at 10 time points during cycle 1 (pre dose, then 1, 1.25, 1.5, 2, 3, 5, 8, 24, 48 hours after the start of administration) and stored at −70°C. Samples were processed by extraction of protein using addition of organic solvent containing internal standards and assayed by LC-MS/MS with a robust, sensitive and validated method for the simultaneous determination of a novel topoisomerase 1 inhibitor CH0793076 (TP3076), the prodrug CH4556300 (TP300), and the active metabolite CH0793011 (TP3011). All plasma had been acidified during collection to avoid the pH-based degradation of TP300 and to shift the equilibria of TP3076 and TP3011 between the lactone and carboxylate forms towards the lactone forms. After the plasma proteins were precipitated with methanol:acetonitrile:HCl 1M (50:50:1, v:v:v) containing stable isotopic internal standards, the analytes were trapped on an Xterra MS C18 column (10×2.1 mm i.d., 5 μm) and separated on a Gemini C18 column (50×2.0 mm i.d., 5 μm) using column-switching liquid chromatography. Electrospray ionization in the positive-ion mode and multiple reaction monitoring were used to quantify the analytes with transitions m/z 587.2>441.2 for TP300, 459.1>415.2 for 3076, and 475.1>361.1 for 3011. The inter- and intra-day precisions were below 12%, and the accuracy was between −16% and 16% at the lower limit of quantitation (LLOQ) and between −11% and 14% at the other quality controls. The LLOQs of TP300, TP3076, and TP3011 were 0.8, 0.04, and 0.04 ng/mL, respectively.
Pharmacokinetic parameters derived from plasma concentration-time data of TP3076 or TP3011 by non-compartmental methods using WinNonlin (version 5.1; Pharsight Corp), included maximal plasma concentration (Cmax) and time of Cmax (Tmax), apparent plasma elimination half-life (t1/2), and the area under the curve (AUC). The urinary excretion ratio (fe) of TP3076 and TP3011 was calculated from the urinary concentration and volume up to 48 hours after administration, and the administration dose. The linearity of Cmax and AUC was determined with linear regression, analysis of variance and power model analysis. The sum of the AUCs of TP3076 and TP3011 was plotted against percentage (%) fall in nadir neutrophil count to explore the relationship between exposure and myelosuppression as a measure of anti-proliferative effect and a sigmoid Emax model fitted to the data: […]

advanced solid tumors = assay: Antitumour activity (RECIST) in Phase I patients; type: in vivo, human
Experimental: The MTD was the dose level below that at which ≥ 2 out of 3–6 patients experienced a DLT. Radiologic assessment of disease was performed every 2 cycles. Patients could remain on treatment if there was evidence of clinical benefit but were withdrawn from the study upon clinical or radiologic progression, unacceptable toxicity or withdrawal of consent.

[2] = test system: peripheral blood mononuclear cells (PBMCs); assay: Single cell gel electrophoresis (comet) assay of DNA strand breaks; type: in vivo, human; conditions: 1 hour post first dose, across all doses
Experimental: Analysis of the ability of TP300 to induce DNA strand breaks was performed on peripheral blood mononuclear cells (PBMCs), pre-dose, 1, 3 and 24 hours post cycle 1. A validated single cell gel electrophoresis (comet) assay was used to assess DNA single-strand breaks. An average of 50 PBMC cells/time-point were analysed and the tail moment (TM) calculated, as the product of the percentage of DNA in the comet tail and the distance between head and tail distributions; higher TM values reflect greater DNA strand breakage. Statistical analyses were not performed due to the limited number of subjects/samples per cohort.

neutrophil count = assay: Exposure versus fall in nadir neutrophil count, sigmoid Emax model; type: in vivo, human; conditions: 1-nadir/pre-observation neutrophils in cycle 1 vs total AUC of TP3076 plus TP3011, sigmoid Emax fit
Experimental: Pharmacokinetic parameters derived from plasma concentration-time data of TP3076 or TP3011 by non-compartmental methods using WinNonlin (version 5.1; Pharsight Corp), included maximal plasma concentration (Cmax) and time of Cmax (Tmax), apparent plasma elimination half-life (t1/2), and the area under the curve (AUC). The urinary excretion ratio (fe) of TP3076 and TP3011 was calculated from the urinary concentration and volume up to 48 hours after administration, and the administration dose. The linearity of Cmax and AUC was determined with linear regression, analysis of variance and power model analysis. The sum of the AUCs of TP3076 and TP3011 was plotted against percentage (%) fall in nadir neutrophil count to explore the relationship between exposure and myelosuppression as a measure of anti-proliferative effect and a sigmoid Emax model fitted to the data:
where γ is the Hill equation constant and EAUC50 is the AUC associated with 50% of the maximal effect.

[3] = Single and repeat dose toxicity studies (preclinical); type: in vivo; conditions: most sensitive of the two species tested; equals 6 mg/m^2
Experimental: The starting dose of 1 mg/m^2 was derived from single and repeat dose toxicity studies and represented one sixth of 0.3 mg/kg (6 mg/m^2), a dose tolerated without evidence of serious, irreversible or life-threatening toxicity in the most sensitive of the two species tested. Doses were doubled in subsequent cohorts until grade ≥2 toxicity was observed, whereupon a modified Fibonacci dose escalation scheme was used. In each cohort the first patient was required to complete 1 cycle before subsequent patients were entered. Intra-patient dose-escalation was not allowed.

[4] = test system: range of tumour types in vitro; parameters: method as in PMID 19495753; conditions: cited from earlier work
[5] = test system: tumours over-expressing the breast cancer resistance protein [BCRP]; parameters: method as in PMID 19495753; conditions: unlike SN38; cited from earlier work

CCCCCN1C=Nc2cccc3nc4c(c1c23)Cn1c-4cc2c(c1=O)COC(=O)[C@@]2(CC)OC(=O)CN(C)C(=O)CN [TP300, glycine,glycyl-N-methyl-,(9S)-9-ethyl-9,10,13,15-tetrahydro-10,13-dioxo-1-pentyl-1H,12H-pyrano[3'',4'':6′,7′]indolizino[2′,1′:5,6]pyrido[4,3,2-de]quinazolin-9-yl ester, hydro-chloride]
measured plasma concentrations 1.5 h after dose ([1]; all doses, LLOQ of TP300 0.8 ng/mL): below the limit of the quantification | concentration at 1 h ([1]; TP300 2 mg/m^2): 3.48 ng/mL | concentration at 1 h ([1]; TP300 8 mg/m^2): 2.34 ng/mL | concentration at 1 h ([1]; TP300 10 mg/m^2): 7.37 ng/mL | concentration at 1 h ([1]; TP300 12 mg/m^2): 18.4 ng/mL | patients with stable disease as best response (advanced solid tumors; 1 each at 4, 8 and 12 mg/m^2 and 3 at 10 mg/m^2): six | objective response as determined by RECIST (advanced solid tumors; 32 patients, 1-12 mg/m^2): no complete or partial responses | duration of stable disease (advanced solid tumors; six patients with stable disease): 1.5-5 months | increase of DNA strand breaks vs pre-treatment [2]: approximately 2 fold | mean tail moment (TM) ([2]; pre-treatment mean 0.69): 1.65 | EAUC50 (AUC associated with 50% of the maximal effect) (neutrophil count): 1.31 | γ (Hill equation constant) (neutrophil count): 0.862 | dose tolerated without evidence of serious, irreversible or life-threatening toxicity [3]: 0.3 mg/kg | activity across a range of tumour types in vitro [4]: activity at nanomolar concentrations | activity in tumours over-expressing BCRP [5]: appears active
